± gives the standard deviation of the averaged measurements.
System: WB-F344
Assay: gap junctional intercellular communication (dye spread) relative to vehicle control (fraction of control); higher = more gap junction communication (less inhibition)
Protocol: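 Confluent WB-F344 rat liver epithelial cells were pretreated with vehicle, D609 (PC-PLC inhibitor, 50 µM, 20 min), U0126 (MEK1/2 inhibitor, 20 µM, 30 min) or resveratrol (100 µM, 15 min), then exposed to a GJIC-dysregulating chemical at the listed dose and time. GJIC was measured by scalpel loading-dye transfer with Lucifer Yellow (3 min), and the dye-spread area was quantified in ImageJ as a fraction of the vehicle control (FOC). Individual values come from at least 3 independent experiments.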

[1] = pretreatment: D609+GJIC dysreg.
[2] = pretreatment: U0126+GJIC dysreg.
[3] = dose note: (70 uM), pretreatment: D609+GJIC dysreg.
[4] = dose note: (70 uM), pretreatment: GJIC dysreg.
[5] = dose note: (70 uM), pretreatment: RES+GJIC dysreg.
[6] = dose note: (70 uM), pretreatment: U0126+GJIC dysreg.
[7] = dose note: (100 uM), pretreatment: D609+GJIC dysreg.
[8] = dose note: (100 uM), pretreatment: GJIC dysreg.
[9] = dose note: (100 uM), pretreatment: RES+GJIC dysreg.
[10] = dose note: (100 uM), pretreatment: U0126+GJIC dysreg.

Structure (SMILES)	gap junctional intercellular communication [1]	gap junctional intercellular communication (pretreatment: GJIC dysreg.)	gap junctional intercellular communication (pretreatment: RES+GJIC dysreg.)	gap junctional intercellular communication [2]	further results
Cc1nc2sccn2c(=O)c1CCN1CCC(=C(c2ccccc2)c2ccc(F)cc2)CC1 (compound abbreviation / co-treatment: R59022, exposure (dose, time): 30-50 µM, 10 min)	0.848 ± 0.081	0.344 ± 0.13	0.867 ± 0.16	0.641 ± 0.11	
Clc1ccc(C(c2ccccc2Cl)C(Cl)(Cl)Cl)cc1 (centres undefined) [1,1,1-Trichloro-2-(2-chlorophenyl)-2-(4-chlorophenyl)ethane] (compound abbreviation / co-treatment: DDT, exposure (dose, time): 30 µM,  20 min)	0.832 ± 0.089	0.308 ± 0.053	0.777 ± 0.025	0.337 ± 0.082	
Cc1cccc2cc3ccccc3cc12 [1-Methylanthracene] (compound abbreviation / co-treatment: 1-MeA, exposure (dose, time): 70 µM, 10 min)	0.872 ± 0.094	0.278 ± 0.066	0.818 ± 0.14	0.262 ± 0.067	
Cc1cccc2c1Cc1ccccc1-2 [1-Methylfluoren] (compound abbreviation / co-treatment: 1-MeFlu, exposure (dose, time): 70 µM, 10 min)	0.84 ± 0.13	0.266 ± 0.076	1 ± 0.17	0.318 ± 0.052	
Cc1ccc2ccc3cccc4ccc1c2c34 [1-Methylpyrene] (compound abbreviation / co-treatment: 1-MePyr, exposure (dose, time): 70 µM, 10 min)	0.956 ± 0.048	0.397 ± 0.072	0.815 ± 0.15	0.345 ± 0.094	
CCCCCCCCCCCC(=O)OCC(O)CO (centres undefined) [1-Monolaurin] (compound abbreviation / co-treatment: Lau, exposure (dose, time): 150 µM, 10 min)	0.245 ± 0.028	0.229 ± 0.026	0.245 ± 0.034	0.234 ± 0.034	
Clc1cc(Cl)c(-c2cc(Cl)c(Cl)cc2Cl)cc1Cl [2,2',4,4',5,5'-Hexachlorobiphenyl] (compound abbreviation / co-treatment: PCB 153, exposure (dose, time): 50 µM, 30 min)	0.781 ± 0.17	0.353 ± 0.093	0.857 ± 0.11	0.278 ± 0.083	
Cc1c2ccccc2c(C)c2ccccc12 [9,10-Dimethylanthracene] (compound abbreviation / co-treatment: 9,10-DiMeA, exposure (dose, time): 70-100 µM, 10 min)					gap junctional intercellular communication [3]: 0.888 ± 0.038; gap junctional intercellular communication [4]: 0.213 ± 0.06; gap junctional intercellular communication [5]: 0.744 ± 0.14; gap junctional intercellular communication [6]: 0.342; gap junctional intercellular communication [7]: 0.937 ± 0.033; gap junctional intercellular communication [8]: 0.317 ± 0.041; gap junctional intercellular communication [9]: 0.871 ± 0.15; gap junctional intercellular communication [10]: 0.356 ± 0.096
CCCCCCCCCCCCCC(=O)O[C@@H]1[C@@H](C)[C@@]2(O)[C@@H](C=C(CO)C[C@]3(O)C(=O)C(C)=C[C@@H]23)[C@@H]2C(C)(C)[C@]12OC(C)=O [12-O-tetradecanoylphorbol-13-acetate] (compound abbreviation / co-treatment: TPA, exposure (dose, time): 10 nM, 30 min)	0.309 ± 0.077	0.202 ± 0.031	1.05 ± 0.13	0.967 ± 0.092	
CCc1cccc(CC)c1N(COC)C(=O)CCl [Alachlor] (compound abbreviation / co-treatment: Alachlor, exposure (dose, time): 185 µM, 25 min)	0.285 ± 0.08	0.259 ± 0.072	0.789 ± 0.14	0.356 ± 0.12	
CCCCC/C=C\C/C=C\C/C=C\C/C=C\CCCC(=O)O [Arachidonic acid] (compound abbreviation / co-treatment: AA, exposure (dose, time): 70-100 µM, 15 min)					gap junctional intercellular communication [3]: 0.164; gap junctional intercellular communication [4]: 0.196; gap junctional intercellular communication [5]: 0.193; gap junctional intercellular communication [6]: 0.244; gap junctional intercellular communication (dose note: (75 uM), pretreatment: D609+GJIC dysreg.): 0.2; gap junctional intercellular communication (dose note: (75 uM), pretreatment: GJIC dysreg.): 0.2; gap junctional intercellular communication (dose note: (75 uM), pretreatment: RES+GJIC dysreg.): 0.207; gap junctional intercellular communication (dose note: (75 uM), pretreatment: U0126+GJIC dysreg.): 0.216; gap junctional intercellular communication (dose note: (90 uM), pretreatment: D609+GJIC dysreg.): 0.29 ± 0.055; gap junctional intercellular communication (dose note: (90 uM), pretreatment: GJIC dysreg.): 0.279 ± 0.058; gap junctional intercellular communication (dose note: (90 uM), pretreatment: RES+GJIC dysreg.): 0.25 ± 0.032; gap junctional intercellular communication (dose note: (90 uM), pretreatment: U0126+GJIC dysreg.): 0.347 ± 0.025; gap junctional intercellular communication [7]: 0.196; gap junctional intercellular communication [8]: 0.193; gap junctional intercellular communication [9]: 0.189; gap junctional intercellular communication [10]: 0.199
O=C(OOC(=O)c1ccccc1)c1ccccc1 [Benzoylperoxide] (compound abbreviation / co-treatment: BzOOH, exposure (dose, time): 200 µM, 15 min)	0.373 ± 0.057	0.368 ± 0.085	0.313 ± 0.084	0.33 ± 0.14	
CC(C)(OOC(C)(C)c1ccccc1)c1ccccc1 [Dicumylperoxide] (compound abbreviation / co-treatment: DiCuOOH, exposure (dose, time): 50 µM, 15 min)	0.884 ± 0.058	0.386 ± 0.088	0.829 ± 0.081	0.324 ± 0.11	
c1ccc2c(c1)-c1cccc3cccc-2c13 [Fluoranthene] (compound abbreviation / co-treatment: Fla, exposure (dose, time): 70 µM, 10 min)	0.718 ± 0.11	0.245 ± 0.064	0.937 ± 0.23	0.285 ± 0.091	
c1ccc2c(c1)Cc1ccccc1-2 [Fluoren] (compound abbreviation / co-treatment: Flu, exposure (dose, time): 100 µM, 10 min)	0.884 ± 0.12	0.253 ± 0.034	0.848 ± 0.12	0.309 ± 0.013	
Cl[C@H]1[C@H](Cl)[C@@H](Cl)[C@@H](Cl)[C@H](Cl)[C@H]1Cl [Lindane] (compound abbreviation / co-treatment: Lindane, exposure (dose, time): 60 µM, 25 min)	0.335 ± 0.046	0.282 ± 0.062	0.741 ± 0.048	0.695 ± 0.16	
Oc1c(Cl)c(Cl)c(Cl)c(Cl)c1Cl [Pentachlorophenol] (compound abbreviation / co-treatment: PCP, exposure (dose, time): 50 µM, 10 min)	0.335 ± 0.068	0.282 ± 0.055	0.387 ± 0.14	0.336 ± 0.023	
